In patent publication US8846704B2, “Thiopyrimidine-based compounds and uses thereof” (YM Biosciences Austraila Pty Ltd, priority 2007, dated 2014) one finds GI50 data, which are given here for 24 compounds.

Some results are limits rather than exact numbers.

In this experiment the target is T1, BaF3 TELJAK3 cells (Homo sapiens, UniProt P52333).
T1 construct: fused on or other part: TEL (ETV6) N-terminal part, coding nucleotides 1-487, serves as the oligomerising partner; It is fused through a Sal I site to the JAK3 kinase domain and expressed from pTRE2 in BaF3 cells bearing pTET-off; P41212 (Transcription factor ETV6)
T1 sequence (P52333 1-1124): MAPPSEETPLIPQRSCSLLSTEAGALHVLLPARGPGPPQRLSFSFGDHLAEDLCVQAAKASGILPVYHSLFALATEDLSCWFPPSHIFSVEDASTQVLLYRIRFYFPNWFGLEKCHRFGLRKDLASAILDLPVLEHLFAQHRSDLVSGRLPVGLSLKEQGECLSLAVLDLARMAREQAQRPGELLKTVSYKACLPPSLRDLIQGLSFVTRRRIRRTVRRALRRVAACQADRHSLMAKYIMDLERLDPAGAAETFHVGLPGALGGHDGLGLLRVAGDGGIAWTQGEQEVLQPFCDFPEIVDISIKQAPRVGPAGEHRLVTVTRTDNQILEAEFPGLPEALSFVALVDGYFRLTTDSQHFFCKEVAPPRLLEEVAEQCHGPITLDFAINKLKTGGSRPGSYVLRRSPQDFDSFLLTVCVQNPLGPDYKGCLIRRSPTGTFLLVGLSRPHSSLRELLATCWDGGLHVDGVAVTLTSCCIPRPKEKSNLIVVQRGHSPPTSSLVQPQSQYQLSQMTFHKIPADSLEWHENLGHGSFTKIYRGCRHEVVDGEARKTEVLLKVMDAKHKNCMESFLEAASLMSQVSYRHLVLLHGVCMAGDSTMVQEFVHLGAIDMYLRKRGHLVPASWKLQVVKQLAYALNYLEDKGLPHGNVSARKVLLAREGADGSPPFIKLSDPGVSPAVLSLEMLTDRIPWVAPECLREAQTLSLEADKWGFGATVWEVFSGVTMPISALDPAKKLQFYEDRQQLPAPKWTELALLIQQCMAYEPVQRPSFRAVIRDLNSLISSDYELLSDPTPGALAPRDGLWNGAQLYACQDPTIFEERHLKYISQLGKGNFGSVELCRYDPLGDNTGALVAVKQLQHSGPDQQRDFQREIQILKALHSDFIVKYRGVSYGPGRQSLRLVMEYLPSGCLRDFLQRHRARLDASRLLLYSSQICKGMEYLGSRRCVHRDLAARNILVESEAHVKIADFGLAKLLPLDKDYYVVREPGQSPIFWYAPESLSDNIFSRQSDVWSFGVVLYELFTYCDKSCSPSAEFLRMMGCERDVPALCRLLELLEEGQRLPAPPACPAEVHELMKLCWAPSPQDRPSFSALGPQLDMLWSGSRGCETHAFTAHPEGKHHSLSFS
Description: Cellular screening, BaF3 TEL:JAK3 cells, Alamar Blue. The note with it: 40 hr, read-out: BafT_J3 IC50_nM. Format: cell-based. The method, then:
For screening purposes, compounds were diluted in 96 well plates at a concentration of 20 μM. Plates were warmed at 37° C. for 30 minutes before the assay was performed.
The coding region encompassing nucleotides 1-487 of TEL was amplified by PCR using the oligonucleotides STEL (5′-GGAGGATCCTGATCTCTCTCGCTGTGAGAC-3′) [SEQ ID NO 14] and 3TEL (5′-AGGC GTCGACTTCTTCTTCATGGTTCTG-3′) [SEQ ID NO 15] and U937 mRNA as a template. A […] restriction site was incorporated into the STEL primer, and a Sal I restriction site was incorporated into the 3TEL primer. The regions encompassing the kinase domain of JAK2 (nucleotides 2994-3914; JAK2F 5′-ACGC GTCGACGGTGCCTTTGAAGACCGGGAT-3′ [SEQ ID NO 16]; JAK2R 5′-ATAGTTTAGCGGCCGCTCAGAATGAAGGTCATTT-3′) [SEQ ID NO 17] and JAK3 (nucleotides 2520-3469; JAK3F 5′-GAAGTCGACTATGCCTGCCAAGACCCCACGATCTT-3′) [SEQ ID NO 18] were generated by PCR using Taq DNA polymerase (Gibco/BRL) and […] as a template. A Sal I restriction site was incorporated into the forward primer of JAK2 and JAK3, a Not I site was incorporated into the JAK2 reverse primer and a Xba I site was added to the reverse primer of JAK3.
The TEL/Jak3 fusion was prepared by ligation of the JAK3 Sal I/Not I cleaved kinase domain PCR product with the BamH I/Sal I restriction digested TEL product, followed by ligation of the ligation product into the BamH I/Not I digested pTRE2, to give the TEL/Jak3 fusion plasmid pTELJAK3.
The growth factor dependant myelomonocytic cell line BaF3 bearing the pTET-off plasmid (Clontech) was transfected with either pTELJAK2 or pTELJAK3, and the transfected cells were selected for growth-factor independent cell growth. The BaF3 wild-type cells were cultured in DMEM containing 10% FCS, 10% WEHI 3B conditioned medium. The BaF3 TELJAK cells ([…]) were cultured in DMEM 10% Tet-System Approved FBS (without WEHI 3B conditioned medium).
Cell suspensions were prepared by harvesting cells from culture (the cells used in this test were in late log phase growth with high viability.) Cells were diluted in the appropriate growth medium, as described above, to 1.1× final concentration (from 50,000 cell/mL to 200,000 cell/mL, depending on cell line).
Compounds to be tested were added (10 μL, 10× final concentration) to a flat bottomed 96-well plate. The cellular suspension (90 μL per well) was then added, and the plate incubated for 40 hr at 37° C., 5% CO2. Alamar Blue 10 μL per well was added and the plates returned to the incubator for a further 4-6 hours. The plates were then read at 544 nm.
(In general: Resazurin is reduced to fluorescent resorufin, in cell work by metabolically active cells.)
On to `Cc1cnc(Nc2ccc(O)cc2)nc1Sc1ccc(NC(=O)CCl)cc1` [Compound 193, 2-chloro-N-(4-(2-(4-hydroxyphenylao)-5-methylpyrimidin-4-ylthio)phenyl)acetamide], for which the GI50 was less than 1 µM.

For the compound `Cc1cnc(Nc2cccc(O)c2)nc1Sc1ccc(NC(=O)CCl)cc1` [Compound 194, 2-chloro-N-(4-(2-(3-hydroxyphenylao)-5-methylpyrimidin-4-ylthio)phenyl)acetamide], the GI50 is less than 1 µM.

As to `N#Cc1ncn(Cc2ccc(Sc3ccnc(Nc4ccc(N5CCOCC5)cc4)n3)cc2)c1C#N` [Compound 201, 1-(4-(2-(4-morpholinophenylao)pyrimidin-4-ylthio)benzyl)-1H-imidazole-4,5-dicarbonitrile], the GI50 was less than 5 µM.

In the case of `Cc1cnc(Nc2ccc(N3CCOCC3)cc2)nc1Sc1ccc(NC(=O)CSCC(=O)O)cc1` [Compound 230, 2-(2-(4-(5-methyl-2-(4-morpholinophenylao)pyrimidin-4-ylthio)phenylao)-2-oxoethylthio)acetic acid], the GI50 was greater than 20 µM.

On to `Cc1cnc(Nc2ccc(N3CCOCC3)cc2)nc1Sc1ccc(N2C(=O)CSCC2=O)cc1` [Compound 231, 4-(4-(5-methyl-2-(4-morpholinophenylao)pyrimidin-4-ylthio)phenyl)thiomorpholine-3,5-dione], for which the GI50 is less than 20 µM.

As for `CC#CC(=O)Nc1cccc(Sc2ccnc(Nc3cccc(N4CCOCC4)c3)n2)c1` [Compound 232, N-(3-(2-(3-morpholinophenylao)pyrimidin-4-ylthio)phenyl)but-2-ynamide], the GI50 was less than 5 µM.

On to `CC#CC(=O)Nc1ccc(Sc2ccnc(Nc3cccc(N4CCOCC4)c3)n2)cc1` [Compound 233, N-(4-(2-(3-morpholinophenylao)pyrimidin-4-ylthio)phenyl)but-2-ynamide], for which the GI50 is less than 1 µM.

Take `C=CC(=O)Nc1ccc(Sc2nc(Nc3cccc(OC)c3)ncc2C)cc1` [Compound 235, N-(4-(2-(3-methoxyphenylao)-5-methylpyrimidin-4-ylthio)phenyl)acrylamide]: the GI50 is less than 1 µM.

As to `C=CC(=O)Nc1ccc(Sc2nc(Nc3cccc(N4CCOCC4)c3)ncc2C)cc1` [Compound 237, N-(4-(5-methyl-2-(3-morpholinophenylao)pyrimidin-4-ylthio)phenyl)acrylamide], the GI50 is less than 1 µM.

As for `C=CC(=O)Nc1ccc(Sc2ccnc(Nc3ccc(N4CCN(C)CC4)cc3)n2)cc1` [Compound 238, N-(4-(2-(4-(4-methylpiperazin-1-yl)phenylao)pyrimidin-4-ylthio)phenyl)acrylamide], the GI50 was less than 1 µM.

In the case of `C=CC(=O)Nc1ccc(Sc2nc(Nc3ccc(N4CCN(C)CC4)cc3)ncc2C)cc1` [Compound 239, N-(4-(5-methyl-2-(4-(4-methylpiperazin-1-yl)phenylao)pyrimidin-4-ylthio)phenyl)acrylamide], the GI50 is less than 1 µM.

For the compound `COc1ccc(Nc2ncc(C)c(Sc3ccc(N)cc3)n2)cc1OC` [Compound 240, 4-(4-aophenylthio)-N-(3,4-dimethoxyphenyl)-5-methylpyrimidin-2-ae], the GI50 was less than 5 µM.

On to `C=CC(=O)Nc1ccc(Sc2nc(Nc3ccc(OC)c(OC)c3)ncc2C)cc1` [Compound 241, N-(4-(2-(3,4-dimethoxyphenylao)-5-methylpyrimidin-4-ylthio)phenyl)acrylamide], for which the GI50 was less than 1 µM.

As for `C=CC(=O)Nc1ccc(Sc2nc(Nc3ccc(C)c(Br)c3)ncc2C)cc1` [Compound 242, N-(4-(2-(3-bromo-4-methylphenylao)-5-methylpyrimidin-4-ylthio)phenyl)acrylamide], the GI50 was less than 20 µM.

As to `C=CC(=O)Nc1ccc(Sc2nc(Nc3cccc(N4CCN(C)CC4)c3)ncc2C)cc1` [Compound 243, N-(4-(5-methyl-2-(3-(4-methylpiperazin-1-yl)phenylao)pyrimidin-4-ylthio)phenyl)acrylamide], the GI50 was less than 1 µM.

On to `Cc1cnc(Nc2ccc(N3CCN(C)CC3)cc2)nc1Sc1ccc(N)cc1` [Compound 244, 4-(4-aophenylthio)-5-methyl-N-(4-(4-methylpiperazin-1-yl)phenyl)pyrimidin-2-ae], for which the GI50 is less than 5 µM.

Take `Cc1cnc(Nc2cccc(N3CCN(C)CC3)c2)nc1Sc1ccc(N)cc1` [Compound 245, 4-(4-aophenylthio)-5-methyl-N-(3-(4-methylpiperazin-1-yl)phenyl)pyrimidin-2-ae]: the GI50 was less than 1 µM.

As to `C=CC(=O)Nc1ccc(Sc2nc(Nc3ccc(C4CCN(C)CC4)cc3)ncc2C)cc1` [Compound 246, N-(4-(5-methyl-2-(4-(1-methylpiperidin-4-yl)phenylao)pyrimidin-4-ylthio)phenyl)acrylamide], the GI50 is less than 1 µM.

For the compound `C=CC(=O)Nc1ccc(Sc2nc(Nc3ccc(N4CCOCC4)c(OC)c3)ncc2C)cc1` [Compound 248, N-(4-(2-(3-methoxy-4-morpholinophenylao)-5-methylpyrimidin-4-ylthio)phenyl)acrylamide], the GI50 is less than 1 µM.

For `C=CC(=O)Nc1ccc(Sc2nc(Nc3ccc(N4CCN(C)CC4)c(OC)c3)ncc2C)cc1` [Compound 249, N-(4-(2-(3-methoxy-4-(4-methylpiperazin-1-yl)phenylao)-5-methylpyrimidin-4-ylthio)phenyl)acrylamide], the GI50 was less than 1 µM.

In the case of `Cc1cnc(Nc2ccc(N3CCOCC3)cc2)nc1Sc1ccc(N)cc1Cl` [Compound 251, 4-(4-ao-2-chlorophenylthio)-5-methyl-N-(4-morpholinophenyl)pyrimidin-2-ae], the GI50 was greater than 20 µM.

`C=CC(=O)Nc1ccc(Sc2nc(Nc3ccc(N4CCC(CO)CC4)cc3)ncc2Br)cc1` [Compound 253, N-(4-(5-bromo-2-(4-(4-(hydroxymethyl)piperidin-1-yl)phenylao)pyrimidin-4-ylthio)phenyl)acrylamide]: the GI50 is less than 1 µM.

For `C=CC(=O)Nc1ccc(Sc2nc(Nc3ccc(N4CCOCC4)nc3)ncc2C)cc1` [Compound 254, N-(4-(5-methyl-2-(6-morpholinopyridin-3-ylao)pyrimidin-4-ylthio)phenyl)acrylamide], the GI50 is less than 1 µM.

Take `Cc1cc(Sc2nc(Nc3ccc(N4CCOCC4)cc3)ncc2C)ccc1N` [Compound 255, 4-(4-ao-3-methylphenylthio)-5-methyl-N-(4-morpholinophenyl)pyrimidin-2-ae]: the GI50 is less than 20 µM.
